Laboratory results published in ChEMBL document CHEMBL4507272 (2021).

What was measured:
[1] = system: Tyrosine-protein kinase ABL1 (Homo sapiens), P00519 [H396P]; conditions: Compound concentration 1000.0 nM
[2] = system: Tyrosine-protein kinase ABL1 (Homo sapiens), P00519 [Q252H]; conditions: Compound concentration 1000.0 nM
[3] = target: Activin receptor type-1B (Homo sapiens) (UniProt P36896); conditions: Compound concentration 1000.0 nM
[4] = target: Activin receptor type-1-like (Homo sapiens) (UniProt P37023); conditions: Compound concentration 1000.0 nM
[5] = target: RAC-alpha serine/threonine-protein kinase (Homo sapiens) (UniProt P31749); conditions: Compound concentration 1000.0 nM
[6] = target: 5'-AMP-activated protein kinase catalytic subunit alpha-1 (Homo sapiens) (UniProt Q13131); conditions: Compound concentration 1000.0 nM
[7] = target: Mitogen-activated protein kinase kinase kinase 5 (Homo sapiens) (UniProt Q99683); conditions: Compound concentration 1000.0 nM
[8] = target: Calcium/calmodulin-dependent protein kinase type IV (Homo sapiens) (UniProt Q16566); conditions: Compound concentration 1000.0 nM
[9] = target: Casein kinase I isoform epsilon (Homo sapiens) (UniProt P49674); conditions: Compound concentration 1000.0 nM
[10] = target: Casein kinase I isoform gamma-1 (Homo sapiens) (UniProt Q9HCP0); conditions: Compound concentration 1000.0 nM
Casein kinase I isoform gamma-1 (Homo sapiens), sequence (Q9HCP0 whole entry, looked up, canonical isoform): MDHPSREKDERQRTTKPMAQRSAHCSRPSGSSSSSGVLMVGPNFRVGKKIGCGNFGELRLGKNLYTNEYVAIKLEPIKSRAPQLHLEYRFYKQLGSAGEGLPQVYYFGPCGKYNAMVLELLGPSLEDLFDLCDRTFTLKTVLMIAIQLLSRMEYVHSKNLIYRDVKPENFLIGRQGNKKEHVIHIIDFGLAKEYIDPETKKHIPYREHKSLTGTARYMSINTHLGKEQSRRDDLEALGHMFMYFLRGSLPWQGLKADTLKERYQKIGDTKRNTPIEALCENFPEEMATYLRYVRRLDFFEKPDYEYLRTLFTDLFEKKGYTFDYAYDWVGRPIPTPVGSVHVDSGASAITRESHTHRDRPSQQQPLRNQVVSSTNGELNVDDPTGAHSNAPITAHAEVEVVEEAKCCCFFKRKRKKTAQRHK

[11] = target: Casein kinase I isoform gamma-3 (Homo sapiens) (UniProt Q9Y6M4); conditions: Compound concentration 1000.0 nM
[12] = target: Serine/threonine-protein kinase 17B (Homo sapiens) (UniProt O94768); conditions: Compound concentration 1000.0 nM
Serine/threonine-protein kinase 17B (Homo sapiens), sequence (O94768 whole entry): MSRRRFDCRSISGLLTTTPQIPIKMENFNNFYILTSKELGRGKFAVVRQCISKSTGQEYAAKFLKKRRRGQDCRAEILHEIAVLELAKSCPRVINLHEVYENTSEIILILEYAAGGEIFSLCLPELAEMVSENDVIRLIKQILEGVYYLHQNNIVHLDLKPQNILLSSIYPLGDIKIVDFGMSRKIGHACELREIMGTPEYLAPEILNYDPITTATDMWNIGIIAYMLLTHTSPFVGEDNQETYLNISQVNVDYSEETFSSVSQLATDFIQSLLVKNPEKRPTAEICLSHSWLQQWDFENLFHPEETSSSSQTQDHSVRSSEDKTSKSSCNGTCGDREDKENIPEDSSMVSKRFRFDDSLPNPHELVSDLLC

[13] = target: Ephrin type-A receptor 1 (Homo sapiens) (UniProt P21709); conditions: Compound concentration 1000.0 nM
[14] = target: Ephrin type-A receptor 5 (Homo sapiens) (UniProt P54756); conditions: Compound concentration 1000.0 nM
Ephrin type-A receptor 5 (Homo sapiens), sequence (P54756 whole entry): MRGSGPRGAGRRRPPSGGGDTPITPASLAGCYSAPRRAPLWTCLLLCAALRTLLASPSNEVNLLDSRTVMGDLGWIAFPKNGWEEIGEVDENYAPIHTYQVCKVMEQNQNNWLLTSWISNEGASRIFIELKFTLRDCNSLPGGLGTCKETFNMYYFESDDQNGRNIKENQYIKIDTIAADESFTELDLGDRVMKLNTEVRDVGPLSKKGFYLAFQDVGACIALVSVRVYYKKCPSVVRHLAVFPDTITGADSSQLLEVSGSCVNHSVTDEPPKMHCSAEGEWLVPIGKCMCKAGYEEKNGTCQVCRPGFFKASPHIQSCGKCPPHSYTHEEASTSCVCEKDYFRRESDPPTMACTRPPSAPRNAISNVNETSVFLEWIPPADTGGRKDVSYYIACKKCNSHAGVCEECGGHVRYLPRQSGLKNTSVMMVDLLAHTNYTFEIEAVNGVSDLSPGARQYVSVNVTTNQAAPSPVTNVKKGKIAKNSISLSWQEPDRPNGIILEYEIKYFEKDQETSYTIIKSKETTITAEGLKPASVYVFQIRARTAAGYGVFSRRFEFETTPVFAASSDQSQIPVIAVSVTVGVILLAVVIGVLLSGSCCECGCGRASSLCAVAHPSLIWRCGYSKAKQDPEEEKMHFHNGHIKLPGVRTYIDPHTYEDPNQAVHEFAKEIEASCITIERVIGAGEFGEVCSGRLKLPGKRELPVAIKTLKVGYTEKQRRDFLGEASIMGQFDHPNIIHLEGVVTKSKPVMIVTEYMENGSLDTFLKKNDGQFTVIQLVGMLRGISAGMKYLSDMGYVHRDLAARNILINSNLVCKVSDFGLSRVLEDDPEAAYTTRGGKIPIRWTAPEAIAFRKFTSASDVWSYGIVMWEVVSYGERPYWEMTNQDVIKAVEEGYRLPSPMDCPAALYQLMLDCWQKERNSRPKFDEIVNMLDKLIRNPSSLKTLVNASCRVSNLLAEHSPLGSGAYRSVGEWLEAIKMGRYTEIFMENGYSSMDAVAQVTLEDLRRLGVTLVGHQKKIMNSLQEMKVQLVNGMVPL

[15] = target: Ephrin type-B receptor 4 (Homo sapiens) (UniProt P54760); conditions: Compound concentration 1000.0 nM
[16] = target: Mitogen-activated protein kinase 1 (Homo sapiens) (UniProt P28482); conditions: Compound concentration 1000.0 nM
[17] = system: Receptor-type tyrosine-protein kinase FLT3 (Homo sapiens), P36888 [R834Q]; conditions: Compound concentration 1000.0 nM
[18] = target: Cyclin-G-associated kinase (Homo sapiens) (UniProt O14976); conditions: Compound concentration 1000.0 nM
[19] = target: Beta-adrenergic receptor kinase 1 (Homo sapiens) (UniProt P25098); conditions: Compound concentration 1000.0 nM
[20] = target: Insulin receptor (Homo sapiens) (UniProt P06213); conditions: Compound concentration 1000.0 nM
[21] = target: Interleukin-1 receptor-associated kinase 1 (Homo sapiens) (UniProt P51617); conditions: Compound concentration 1000.0 nM
[22] = target: Mitogen-activated protein kinase 10 (Homo sapiens) (UniProt P53779); conditions: Compound concentration 1000.0 nM
[23] = target: Mast/stem cell growth factor receptor Kit (Homo sapiens) (UniProt P10721); conditions: Compound concentration 1000.0 nM
[24] = target: Mitogen-activated protein kinase kinase kinase 13 (Homo sapiens) (UniProt O43283); conditions: Compound concentration 1000.0 nM
[25] = target: Mitogen-activated protein kinase kinase kinase 2 (Homo sapiens) (UniProt Q9Y2U5); conditions: Compound concentration 1000.0 nM
[26] = target: MAP/microtubule affinity-regulating kinase 4 (Homo sapiens) (UniProt Q96L34); conditions: Compound concentration 1000.0 nM
[27] = target: Dual specificity mitogen-activated protein kinase kinase 4 (Homo sapiens) (UniProt P45985); conditions: Compound concentration 1000.0 nM
[28] = target: Serine/threonine-protein kinase 4 (Homo sapiens) (UniProt Q13043); conditions: Compound concentration 1000.0 nM
Serine/threonine-protein kinase 4 (Homo sapiens), sequence (Q13043 whole entry): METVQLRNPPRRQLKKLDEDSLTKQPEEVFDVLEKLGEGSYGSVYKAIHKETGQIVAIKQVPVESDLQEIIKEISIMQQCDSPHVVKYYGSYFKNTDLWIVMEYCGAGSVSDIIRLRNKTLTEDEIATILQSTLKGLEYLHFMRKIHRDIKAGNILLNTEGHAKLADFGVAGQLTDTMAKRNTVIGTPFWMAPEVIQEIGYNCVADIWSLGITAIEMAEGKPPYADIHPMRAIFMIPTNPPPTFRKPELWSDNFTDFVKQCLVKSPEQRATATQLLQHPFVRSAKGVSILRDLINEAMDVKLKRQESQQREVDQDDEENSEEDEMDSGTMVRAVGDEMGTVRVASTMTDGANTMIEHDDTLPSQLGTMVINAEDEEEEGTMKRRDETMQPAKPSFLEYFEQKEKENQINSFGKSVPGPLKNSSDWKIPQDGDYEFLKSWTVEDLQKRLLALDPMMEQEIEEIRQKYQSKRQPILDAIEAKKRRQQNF

[29] = target: Myosin-IIIa (Homo sapiens) (UniProt Q8NEV4); conditions: Compound concentration 1000.0 nM
[30] = target: Serine/threonine-protein kinase Nek10 (Homo sapiens) (UniProt Q6ZWH5); conditions: Compound concentration 1000.0 nM
[31] = target: Mitogen-activated protein kinase 12 (Homo sapiens) (UniProt P53778); conditions: Compound concentration 1000.0 nM
[32] = target: Phosphatidylinositol 4-phosphate 5-kinase type-1 gamma (Homo sapiens) (UniProt O60331); conditions: Compound concentration 1000.0 nM
[33] = target: cAMP-dependent protein kinase catalytic subunit beta (Homo sapiens) (UniProt P22694); conditions: Compound concentration 1000.0 nM
[34] = target: Serine/threonine-protein kinase SIK3 (Homo sapiens) (UniProt Q9Y2K2); conditions: Compound concentration 1000.0 nM
[35] = system: Proto-oncogene tyrosine-protein kinase receptor Ret (Homo sapiens), P07949 [V804M]; conditions: Compound concentration 1000.0 nM
[36] = target: Rho-associated protein kinase 2 (Homo sapiens) (UniProt O75116); conditions: Compound concentration 1000.0 nM
[37] = target: Ribosomal protein S6 kinase alpha-2 (Homo sapiens) (UniProt Q15349); conditions: Compound concentration 1000.0 nM
Ribosomal protein S6 kinase alpha-2 (Homo sapiens), sequence (Q15349 whole entry): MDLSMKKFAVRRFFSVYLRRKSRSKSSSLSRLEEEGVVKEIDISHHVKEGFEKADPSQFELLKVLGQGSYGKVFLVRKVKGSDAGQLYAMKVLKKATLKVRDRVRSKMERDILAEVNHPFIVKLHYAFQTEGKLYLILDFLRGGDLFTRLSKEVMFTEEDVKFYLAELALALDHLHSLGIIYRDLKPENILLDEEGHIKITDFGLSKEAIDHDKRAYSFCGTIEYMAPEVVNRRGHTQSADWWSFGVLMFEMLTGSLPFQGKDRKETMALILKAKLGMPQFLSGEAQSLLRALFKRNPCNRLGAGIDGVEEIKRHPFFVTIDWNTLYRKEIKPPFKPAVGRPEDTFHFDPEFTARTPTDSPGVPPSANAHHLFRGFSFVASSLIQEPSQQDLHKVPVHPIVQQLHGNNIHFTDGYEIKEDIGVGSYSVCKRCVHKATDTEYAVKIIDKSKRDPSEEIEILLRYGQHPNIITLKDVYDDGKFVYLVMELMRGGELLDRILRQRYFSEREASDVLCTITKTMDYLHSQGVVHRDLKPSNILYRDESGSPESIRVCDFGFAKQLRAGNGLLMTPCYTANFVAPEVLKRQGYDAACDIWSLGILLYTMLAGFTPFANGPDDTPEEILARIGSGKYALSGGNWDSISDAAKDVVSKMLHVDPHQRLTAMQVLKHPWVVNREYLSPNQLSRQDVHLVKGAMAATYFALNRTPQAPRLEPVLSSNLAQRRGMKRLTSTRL

[38] = target: Uncharacterized serine/threonine-protein kinase SBK3 (Homo sapiens) (UniProt P0C264); conditions: Compound concentration 1000.0 nM
[39] = target: STE20/SPS1-related proline-alanine-rich protein kinase (Homo sapiens) (UniProt Q9UEW8); conditions: Compound concentration 1000.0 nM
[40] = target: High affinity nerve growth factor receptor (Homo sapiens) (UniProt P04629); conditions: Compound concentration 1000.0 nM
[41] = target: Serine/threonine-protein kinase VRK2 (Homo sapiens) (UniProt Q86Y07); conditions: Compound concentration 1000.0 nM
Serine/threonine-protein kinase VRK2 (Homo sapiens), sequence (Q86Y07 whole entry): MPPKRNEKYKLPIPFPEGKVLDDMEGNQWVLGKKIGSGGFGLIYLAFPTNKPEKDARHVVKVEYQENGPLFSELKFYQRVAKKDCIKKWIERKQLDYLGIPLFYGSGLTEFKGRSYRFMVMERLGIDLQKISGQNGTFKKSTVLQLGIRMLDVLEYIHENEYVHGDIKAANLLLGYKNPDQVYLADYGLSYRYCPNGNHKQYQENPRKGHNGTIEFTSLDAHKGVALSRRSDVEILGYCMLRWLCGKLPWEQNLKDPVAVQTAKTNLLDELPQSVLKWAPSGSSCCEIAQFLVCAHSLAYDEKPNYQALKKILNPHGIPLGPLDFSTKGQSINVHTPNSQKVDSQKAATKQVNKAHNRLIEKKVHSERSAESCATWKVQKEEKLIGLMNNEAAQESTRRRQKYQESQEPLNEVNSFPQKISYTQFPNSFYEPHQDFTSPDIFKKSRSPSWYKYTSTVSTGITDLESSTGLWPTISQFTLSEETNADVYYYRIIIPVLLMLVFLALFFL

[42] = target: Serine/threonine-protein kinase WNK3 (Homo sapiens) (UniProt Q9BYP7); conditions: Compound concentration 1000.0 nM
[43] = target: Tyrosine-protein kinase ZAP-70 (Homo sapiens) (UniProt P43403); conditions: Compound concentration 1000.0 nM
[44] = target: Alpha-2B adrenergic receptor (Homo sapiens) (UniProt P18089); conditions: Compound concentration 10.0 uM
Alpha-2B adrenergic receptor (Homo sapiens), sequence (P18089 whole entry): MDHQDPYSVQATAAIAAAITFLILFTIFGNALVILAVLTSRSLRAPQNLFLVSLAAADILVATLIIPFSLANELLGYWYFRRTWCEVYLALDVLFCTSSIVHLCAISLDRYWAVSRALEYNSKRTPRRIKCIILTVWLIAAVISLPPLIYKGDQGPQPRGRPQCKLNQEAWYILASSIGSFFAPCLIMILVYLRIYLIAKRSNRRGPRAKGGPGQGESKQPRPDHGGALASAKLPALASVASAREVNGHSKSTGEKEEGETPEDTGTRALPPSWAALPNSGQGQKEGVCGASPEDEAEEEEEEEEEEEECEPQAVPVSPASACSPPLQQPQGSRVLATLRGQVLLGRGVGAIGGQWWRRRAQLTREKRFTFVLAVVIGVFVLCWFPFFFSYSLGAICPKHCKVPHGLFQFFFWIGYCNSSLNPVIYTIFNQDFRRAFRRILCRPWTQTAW

[45] = target: Beta-2 adrenergic receptor (Homo sapiens) (UniProt P07550); conditions: Compound concentration 10.0 uM
Beta-2 adrenergic receptor (Homo sapiens), sequence (P07550 whole entry, looked up): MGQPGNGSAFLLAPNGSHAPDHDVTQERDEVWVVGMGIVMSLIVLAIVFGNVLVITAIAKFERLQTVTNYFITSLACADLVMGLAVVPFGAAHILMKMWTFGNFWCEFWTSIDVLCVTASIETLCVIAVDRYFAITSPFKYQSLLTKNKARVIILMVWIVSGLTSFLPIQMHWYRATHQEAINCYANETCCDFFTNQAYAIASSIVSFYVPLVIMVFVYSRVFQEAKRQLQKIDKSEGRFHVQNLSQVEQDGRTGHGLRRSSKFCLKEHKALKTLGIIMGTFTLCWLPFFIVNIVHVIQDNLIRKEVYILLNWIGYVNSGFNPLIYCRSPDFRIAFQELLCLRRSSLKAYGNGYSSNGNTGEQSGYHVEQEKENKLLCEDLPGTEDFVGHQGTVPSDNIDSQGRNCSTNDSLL

Activin receptor type-1B (Homo sapiens), sequence (P36896 whole entry): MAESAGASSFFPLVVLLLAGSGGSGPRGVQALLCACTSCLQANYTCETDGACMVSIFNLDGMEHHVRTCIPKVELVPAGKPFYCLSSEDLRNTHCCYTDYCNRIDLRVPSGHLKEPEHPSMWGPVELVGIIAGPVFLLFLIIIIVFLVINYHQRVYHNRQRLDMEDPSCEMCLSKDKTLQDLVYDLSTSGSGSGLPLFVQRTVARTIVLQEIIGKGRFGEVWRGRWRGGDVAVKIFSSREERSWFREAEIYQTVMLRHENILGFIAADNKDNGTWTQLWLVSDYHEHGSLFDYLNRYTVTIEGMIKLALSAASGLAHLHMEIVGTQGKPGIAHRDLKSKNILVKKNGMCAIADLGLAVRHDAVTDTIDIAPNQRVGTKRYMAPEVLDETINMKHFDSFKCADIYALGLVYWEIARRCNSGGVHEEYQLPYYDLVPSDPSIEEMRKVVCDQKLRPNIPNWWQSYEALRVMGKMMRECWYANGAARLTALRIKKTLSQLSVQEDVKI

CC(=O)C1=C(C)N(c2cccc(C(F)(F)F)c2)C(=O)N[C@@H]1c1ccc(C#N)nc1 [BAY-678]
residual activity [1]: 87.1%
residual activity [2]: 94.3%
residual activity [3]: 100%
residual activity [4]: 71.7%
residual activity [5]: 90.4%
residual activity [6]: 85.4%
residual activity [7]: 94.8%
residual activity [8]: 54.3%
residual activity [9]: 100%
residual activity [10]: 100%
residual activity [11]: 100%
residual activity [12]: 100%
residual activity [13]: 100%
residual activity [14]: 98.2%
residual activity [15]: 100%
residual activity [16]: 98.9%
residual activity [17]: 83.6%
residual activity [18]: 97.2%
residual activity [19]: 89%
residual activity [20]: 89.3%
residual activity [21]: 100%
residual activity [22]: 100%
residual activity [23]: 83.8%
residual activity [24]: 92.4%
residual activity [25]: 100%
residual activity [26]: 100%
residual activity [27]: 98.1%
residual activity [28]: 97.5%
residual activity [29]: 85.1%
residual activity [30]: 96.4%
residual activity [31]: 77.4%
residual activity [32]: 100%
residual activity [33]: 48.7%
residual activity [34]: 100%
residual activity [35]: 100%
residual activity [36]: 86.1%
residual activity [37]: 100%
residual activity [38]: 100%
residual activity [39]: 90.8%
residual activity [40]: 100%
residual activity [41]: 77.6%
residual activity [42]: 100%
residual activity [43]: 88.1%
inhibition [44]: -1.73%
inhibition [45]: 24.3%
